How the values were obtained:
Assay type in all cases: cell-based, human
[1] = test system: hEAAT2 promoter activity, mRNA levels and protein levels; test: Pathway-specific inhibitors on modulated hEAAT2 promoter activity, mRNA and protein in PHFA; details: PDTC 100 μM, PD 50 μM; for effect on EGF (or TGF-α) enhancement of hEAAT2 promoter activity, mRNA and protein levels: EGF 30 ng/ml; for effect on EGF (or TGF-α) enhancement of hEAAT2 promoter activity, mRNA and protein levels / effect on bromo-cAMP (or dbcAMP) enhancement of hEAAT2 expression: KT5720 5 μM, AG1478 1 μM, wortmannin 100 nM; for effect on bromo-cAMP (or dbcAMP) enhancement of hEAAT2 expression: bromo-cAMP 250 μM
Procedure: (§1) FIG. 5A-E. Effect of pharmacological inhibitors on hEAAT2 promoter activity, and mRNA and protein expression in PHFA following various treatment protocols. A. hEAAT2 promoter activity in PHFA, either untreated (−) or treated with EGF (30 ng/ml), in the absence (−) or presence (+) of KT5720 (5 μM), AG1478 (1 μM), PDTC (100 μM), wortmannin (WRT) (100 nM) or PD98049 (PD) (50 μM). B. hEAAT2 promoter activity in PHFA, either untreated (−) or treated with bromo-cAMP (250 μM) in the absence (−) or presence (+) of KT5720 (5 μM), AG1478 (1 μM), PDTC (100 μM), wortmannin (WRT) (100 nM) or PD98049 (PD) (50 μM). C. hEAAT2 promoter activity in PHFA, either untreated (−) or treated with TNF-α (200 U/ml), in the absence (−) or presence (+) of KT5720 (5 μM), AG1478 (1 μM), PDTC (100 μM), wortmannin (WRT) (100 nM) or PD98049 (PD) (50 μM). D. The effect of the various treatment protocols on hEAAT2 and GAPDH mRNA levels. Upper panel presents relative hEAAT2 RNA expression versus GAPDH expression relative to control untreated or treated samples based on scanning of autoradiograms. Lower panel, actual Northern blots. E. The effect of the various treatment protocols on EAAT2 and ACTIN protein levels. Upper panel presents relative EAAT2 protein expression versus ACTIN expression relative to control untreated or treated samples based on scanning of autoradiograms. Individual experiments were performed 3 times using triplicate samples and S.D. from the mean is presented.
Biochemical Basis for Positive and Negative Regulation of hEAAT2 Expression in PHFA. To define the biochemical pathways relevant to the regulation of hEAAT2 expression in PHFA resulting from the different treatment protocols, a pharmacological approach was employed. This involved the use of well-characterized pathway-specific inhibitors and determining effects on hEAAT2 promoter activity, mRNA levels and protein levels (FIG. 5). The inhibitors included, KT5720 (a protein kinase A. (PKA) inhibitor), AG1478 (a tyrosine kinase inhibitor), worttnannin (a phosphatidylinositol 3-kinase (PI-3K) inhibitor), pyrrolidinedithiocarbamate (PDTC, an inhibitor of NF-κB activation) and PD98059 (a mitogen-activated kinase (MEK1/MEK2) inhibitor) (Zelenaia et al., 2000, Mol Pharmacol 57(4):667-678).

hEAAT2 protein = test: Western blot of EAAT2 protein in PHFA
Procedure: as §1
(§2) Northern and Western Blotting Assays. Total cellular RNA was isolated by the guanidinium/phenol extraction method and Northern blotting was performed as described (Huang et al., 2001, Oncogene 20(48):7051-7063; Su et al., 2000, Oncogene 19(30):3411-3421; Su et al., 2001, Nucleic Acids Res 29(8):1661-1671). Western blotting assays were performed as described (Su et al., 1998, Proc Natl Acad Sci USA 95(24):14400-14405; Su et al., 2002, Oncogene 21(22):3592-602).

hEAAT2 transcription = test: Nuclear run-on assay of hEAAT2 transcription in PHFA; details: 7-day treatment
Procedure: (§3) FIG. 4A-D. Effect of modulators of hEAAT2 activity on hEAAT2 expression and hEAAT2 promoter activity in PHFA. A. A Northern analysis of hEAAT2 and GAPDH mRNA expression following treatment with EGF (30 ng/ml), TGF-α (30 ng/ml), dbcAMP (200 μM, bromo-cAMP (100 μM) or TNF-α (200 U/ml) for 7 days. B. Nuclear run-on assays determining the relative rates of hEAAT2 and GAPDH transcription as a function of 7-day treatment with the same concentrations of the indicated agents. C. A time course of mRNA expression of hEAAT2 and GAPDH following treatment with EGF, bromo-cAMP or TNF-α (same concentrations as in A.). D. Fold luciferase activity in PHFA transfected with flhEAAT2Prom-luc or various deletion mutants of hEAAT2 and non-transfected controls treated with the indicated compounds for four days.
Primer Extension Analysis and Nuclear Run-on Assays. Primer extension assays were performed as described (Su et al., 2000, Oncogene 19(30):3411-3421). A primer with the sequence 5′-[…]-3′ (SEQ ID NO:6) complementary to the 5′ UTR of the hEAAT2 cDNA was used for this assay. Nuclear run-on assays were performed as described (Su et al., 1997, Proc Natl Acad Sci USA 94(17):9125-9130).
To examine whether stimulation of hEAAT2 expression involves transcriptional changes, nuclear run-on assays were performed.

hEAAT2 promoter = test: flhEAAT2Prom-luc and deletion mutant luciferase reporter assay in PHFA treated with modulators; details: deletion mutant; for stimulation of promoter activity after deletion of bp −2426 to bp −703 / upregulation of promoter activity after deletion of bp −703 to bp −326: four day treatment
Procedure: as §3
Construction of hEAAT2 Promoter Deletion Mutants and Performance of the Luciferase Assays. 5′-deletion mutants of the hEAAT2 promoter were made with exonuclease III digestion using the Erase-A-Base System (Promega) as described for the PEG-3 promoter (Su et al., 2000, Oncogene 19(30):3411-3421). The flhEAAT2Prom-luc and flhEAAT2Prom-luc deletion mutants were cloned into the pGL3-basic luciferase reporter vector (Promega) and luciferase reporter assays were performed as described (Su et al., 2000, Oncogene 19(30):3411-3421; Su et al., 2001, Nucleic Acids Res 29(8):1661-1671), except that instead of using lipofectamine, which was toxic to PHFA, the calcium phosphate precipitation transfection technique was used (Babiss et al., 1986, Proc Natl Acad Sci USA 83(7):2167-2171).
Preferential Expression of the hEAAT2 Promoter in PHFA and Deletion Analysis of the hEAAT2 Promoter. hEAAT2 is expressed in brain-derived cells, mainly astrocytes (Tanaka et al., 1997, Science 276(5319):1699-1702; Anderson et al., 2000, Glia 32(1):1-14). Experiments were performed to confirm hEAAT2 promoter activity in normal human astrocytes and to determine expression levels in other cell types (FIG. 2A). Primary early passage and established human normal and tumor cell lines were co-transfected with a putative full-length ˜2.5 kb hEAAT2 promoter, a SacII fragment extending from bp −2426 to bp +44, was cloned into the pGL3-basic vector (Promega), where it drove expression of the firefly luciferase (luc) gene, and a pSV-β-galactosidase expression plasmid. Relative fold expression of a full length hEAAT2 promoter-luciferase (flhEAAT2Prom-luc) construct was determined as described (Su et al., 2000, Oncogene 19(30):3411-3421; Su et al., 2001, Nucleic Acids Res 29(8):1661-1671), and activity versus transfection with a pSV-β-galactosidase plasmid was calculated as described (Su et al., 2000, Oncogene 19(30):3411-3421; Su et al., 2001, Nucleic Acids Res 29(8):1661-1671) to equalize for differences in transfection efficiency.
To examine further the relationship between hEAAT2 and treatment with the various glutamate transporter modulators, transient transfection assays were performed in PHFA using the flhEAAT2Prom-luc constructs and various deletions thereof (FIG. 4D). […] In the case of dbcAMP, promoter activity was enhanced by ˜3-fold.

hEAAT2 mRNA = test: Northern blot of hEAAT2 mRNA in PHFA treated with modulators; details: for hEAAT2 mRNA expression: 7-day treatment, EGF 30 ng/ml, TGF-α 30 ng/ml, dbcAMP 200 μM, bromo-cAMP 100 μM, TNF-α 200 U/ml
Procedure: as §3, §2
Positive and Negative Regulation of hEAAT2 Transcription, Promoter Activity and mRNA Levels in PHFA. Several enhancers of GLT-1 expression in rat astrocytes have been identified, including epidermal growth factor (EGF), transforming growth factor-α (TGF-α) and dibutyryl cyclic AMP (dbcAMP) (Swanson et al., 1997, J Neurosci 17(3):932-940; Zelenaia et al., 2000, Mol Pharmacol 57(4):667-678). Based on these considerations, experiments were performed to determine if these agents similarly modify human hEAAT2 expression in PHFA. Consistent with previous observations in rat astrocytes, 7-day treatment with EGF, TGF-α, and two analogs of cAMP, dbcAMP and bromo-cAMP, stimulated hEAAT2 mRNA expression in PHFA, whereas TNF-α decreased expression (FIG. 4B). […] In contrast, TNF-α decreased expression by 48 h (FIG. 4C).

Compound	effect on EGF (or TGF-α) enhancement of hEAAT2 promoter activity, mRNA and protein levels [1]	effect on bromo-cAMP (or dbcAMP) enhancement of hEAAT2 expression [1]	effect on TNF-α-decreased hEAAT2 promoter, mRNA and protein levels ([1]; cotreatment with TNF-α 200 U/ml)	hEAAT2 protein levels (hEAAT2 protein)	relative rate of transcription of hEAAT2 RNA compared with GAPDH (hEAAT2 transcription)	stimulation of promoter activity after deletion of bp −2426 to bp −703 (hEAAT2 promoter)	upregulation of promoter activity after deletion of bp −703 to bp −326 (hEAAT2 promoter)	hEAAT2 mRNA expression (hEAAT2 mRNA)	time of highest (maximum) hEAAT2 mRNA upregulation (hEAAT2 mRNA; time course) [h]	time by which hEAAT2 mRNA expression was changed (hEAAT2 mRNA; time course, bromo-cAMP enhanced, TNF-α decreased) [h]	promoter activity after further deletion of bp −326 to bp −120 (hEAAT2 promoter)
COc1cc2ncnc(Nc3cccc(Cl)c3)c2cc1OC [AG1478]	abolished	unaffected	–	–	–	–	–	–	–	–	–
CCCCCCOC(=O)[C@]1(O)C[C@@H]2O[C@@]1(C)n1c3ccccc3c3c4c(c5c6ccccc6n2c5c31)C(=O)NC4 [KT5720]	unaffected	eliminated	–	–	–	–	–	–	–	–	–
COc1cccc(-c2cc(=O)c3ccccc3o2)c1N [PD98059]	significantly inhibited but not extinguished	partially inhibited	partial restoration of normal levels of hEAAT2 protein	–	–	–	–	–	–	–	–
Nc1ncnc2c1nc(Br)n2[C@@H]1O[C@@H]2COP(=O)(O)O[C@H]2[C@H]1O [bromo-cAMP]	–	–	–	upregulated	elevated	did not significantly decrease	most relevant	stimulated	48	≤ 24	–
EGF: epidermal growth factor, from Invitrogen	–	–	–	upregulated	elevated	did not significantly decrease	a level approximating that found in uninduced PHFA	stimulated	48	–	did not result in any additional reduction
TGF-α: transforming growth factor-α, from Invitrogen	–	–	–	upregulated	elevated	did not significantly decrease	a level approximating that found in uninduced PHFA	stimulated	–	–	did not result in any additional reduction

— patent publication US20060127980A1, “Human excitatory amino acid transporter-2 gene promoter and uses thereof” (priority 2003, published 2006)
